{"source": "patent US20100279984A1", "about": "“PHARMACEUTICAL COMPOSITIONS CONTAINING BENFOTIAMINE AND ONE OR ONE MORE PHARMACEUTICALLY ACTIVE AGENTS FOR THE TREATMENT OF PAIN CONDITIONS OF NEUROPATHIC ORIGIN” (Merck Patent GmbH, priority 2007, published 2010)", "key": {"[1]": {"tested_on": "righting, stepping, corneal and pinna reflexes", "experiment": "Side effect testing: righting, stepping, corneal and pinna reflexes before and after drug treatment", "type": "in vivo, female Wistar rats", "experimental": "(§1) Drugs: Gabapentin was purchased from Research Biochemicals International (Natick, Mass., USA). Benfotiamine was purchased from Sigma. Gabapentin and benfotiamine were dissolved in saline and given at a volume ratio of 4 ml/kg. Study design: Rats received the oral administration of saline or increasing doses of gabapentin (30-300 mg/kg), benfotiamine (75-300 mg/kg) or the combination of gabapentin and benfotiamine 60 min before evaluation of threshold in spinal nerve injured rats. Observer was unaware of the treatment in each animal. Rats in all groups were tested for possible side effects such as reduction of righting, stepping, corneal and pinna reflexes before and after drug treatment."}, "[2]": {"tested_on": "tactile allodynia induced by ligation of L5 and L6 spinal nerves", "experiment": "Antiallodynic activity: tactile allodynia (von Frey paw withdrawal threshold) in L5/L6 spinal nerve ligated rats (Kim and Chung model)", "type": "in vivo, female Wistar rats", "conditions": "for ED30 (dose producing 30% of antiallodynia): drug alone, 60 min before threshold evaluation, ±SEM; for ED30 (dose producing 30% of antiallodynia) / reduction of tactile allodynia (in words): spinal nerve ligated rats; for reduction of tactile allodynia (in words): P<0.05", "experimental": "The purpose of this study was to assess the possible synergistic interaction between gabapentin and benfotiamine in a neuropathic pain model in the rat (Kim, S. H. and Chung, J. M.: Pain 50: 355-363 (1992)). In addition, the possible synergistic interaction between gabapentin and benfotiamine was also assessed in rats with neuropathic pain. Neuropathic pain was induced by ligation of the left L5 and L6 spinal nerves of female Wistar rats. Tactile allodynia was determined by measuring paw withdrawal in response to probing with a series of calibrated von Frey filaments.\nFemale Wistar rats aged 6-7 weeks (weight range, 120-140 g) from our own breeding facilities were used in this study. Animals had free access to food and drinking water before experiments. Efforts were made to minimize animal suffering and to reduce the number of animals used. All experiments followed the Guidelines on Ethical Standards for Investigation of Experimental Pain in Animals (Zimmermann. M.: Pain 16: 109-110 (1983)). Additionally, the study was approved by the Institutional Animal Care and Use Committee (Centro de Investigacion y de Estudios Avanzados del Instituto Politecnico Nacional, Mexico, D.F., Mexico).\nEvaluation of antiallodynic activity: Rats were prepared according to the method of Kim and Chung (Kim, S. H. and Chung, J. M.: Pain 50: 355-363 (1992)). Animals were anesthetized with a mixture of ketamine/xylazine (45-12 mg/kg, i.p.). After surgical preparation and exposure of the dorsal vertebral column, the L5 and L6 spinal nerves were exposed and tightly ligated with 6-0 silk suture distal to the dorsal root ganglion. For sham operated rats, the nerves were exposed but not ligated. The incisions were closed, and the animals were allowed to recover for 15 days. […] Tactile allodynia was determined by measuring paw withdrawal in response to probing with a series of calibrated fine filaments (von Frey filaments). The strength of the von Frey stimuli range from 0.4 to 15 g. Withdrawal thresholds were determined by increasing and decreasing stimulus strength eliciting paw withdrawal (Chaplan, S. R., et al.: J. Neurosci Meth. 53: 55-63 (1994)). All nerve-ligated rats were verified to be allodynic (responding to a stimulus of less than 4 g).\nas §1\nData analysis and statistics: Curves were constructed plotting the threshold for paw withdrawal as a function of time. Threshold for paw withdrawal was also expressed as the % of antiallodynia. % antiallodynia was calculated with the following equation: % antiallodynia=((area under the withdrawal theshold against time curve (AUC) of the treatment−AUC saline)/(AUC sham−AUC saline)×100. The dose-response curves were fitted using least-squares linear regression and ED30 and its standard error (SEM) were calculated according to the method described by Tallarida (Tallarida, R. J.: Drug Synergism and Dose-Effect Data Analysis. 1st Ed., New York, Chapman and Hall/CRC, pp 1-72 (2000)).\nFor evaluation of the interaction between gabapentin and benfotiamine, isobolograms were constructed using ED30 values obtained when the drugs were administered alone or combined. We used ED30 instead of ED50 values because benfotiamine was not able to reach more than 30% of antiallodynia in the model. […]"}}, "data": [{"smiles": "C/C(=C(\\CCOP(=O)(O)O)SC(=O)c1ccccc1)N(C=O)Cc1cnc(C)nc1N", "note": "[Benfotiamine]", "values": [{"measurement": "effect on assessed reflexes (righting, stepping, corneal, pinna)", "setting": "[1]; rat, in vivo, po", "value": "no evidence of modification of assessed reflexes"}, {"measurement": "antiallodynic effect compared with thiamine (in words)", "setting": "[2]; oral administration, FIG. 5", "value": "higher antiallodynic effect than thiamine"}, {"measurement": "ED30 (dose producing 30% of antiallodynia)", "setting": "[2]; oral administration", "value": "47.4 ± 10", "unit": "mg/kg"}, {"measurement": "reduction of tactile allodynia (in words)", "setting": "[2]; oral administration", "value": "modest dose-dependent reduction"}, {"measurement": "% of antiallodynia reached in the model", "setting": "[2]; oral benfotiamine 75-300 mg/kg, reason for using ED30 instead of ED50", "value": "≤ 30", "unit": "%"}]}, {"smiles": "NCC1(CC(=O)O)CCCCC1", "note": "[Gabapentin]", "values": [{"measurement": "effect on assessed reflexes (righting, stepping, corneal, pinna)", "setting": "[1]; oral, at the selected doses", "value": "No reduction in the assessed reflexes"}, {"measurement": "ED30 (dose producing 30% of antiallodynia)", "setting": "[2]; oral administration", "value": "16.6 ± 2.6", "unit": "mg/kg"}, {"measurement": "reduction of tactile allodynia (in words)", "setting": "[2]; oral administration", "value": "reduced in a dose-dependent manner"}, {"measurement": "maximal antiallodynic effect", "setting": "[2]; oral, at 300 mg/kg", "value": 100, "unit": "%"}]}]}
